According to article PMC5518105, “Identification and characterization of the antiplasmodial activity of Hsp90 inhibitors” (Malaria Journal, 2017):
Like-named read-outs stand apart in the source and are kept apart here.

How the values were obtained:
human Hsp90α = biological target: T1, human Hsp90α (Homo sapiens, UniProt P07900); test: Biacore SPR analysis, full-length human Hsp90α; format: binding; details: for kon: read-out: ka
T1 construct: Full-length human recombinant HSP90α was purchased; purchased Cayman Chemicals, MI
Description: (§1) Full-length human recombinant HSP90α was purchased (Cayman Chemicals, MI), while the malaria recombinant parasite proteins were generated according to the following protocol. […] Growth at 37 °C continued until the OD600 reached ~1.0, whereupon the temperature was lowered to 18 °C and protein expression was induced by the addition of 1 mM isopropyl β-D-thiogalactopyranoside (IPTG). Overnight post-induction cells were collected by centrifugation and resuspended in binding buffer [50 mM Hepes pH 7.5, 500 mM NaCl, 1 mM benzamidine, and 1 mM phenylmethanesulfonyl fluoride (PMSF)]. The cells were lysed by adding chemical lysis buffer (2% CHAPS, 0.1 mg/mL lysozyme and 0.5 U/mL benzonase), the lysate was clarified by centrifugation. The supernatant was loaded on to a nickel-nitrilotriacetic acid column pre-equilibrated with binding buffer (50 mM Hepes pH 7.5, 500 mM NaCl). Following a wash step with binding buffer containing 5 mM imidazole, the bound protein was eluted with elution buffer (50 mM Hepes pH 7.5, 500 mM NaCl, 250 mM imidazole). The eluate was then loaded on to a 16/60 Superdex 200 size exclusion column pre-equilibrated with 50 mM Hepes pH 7.5 and 500 mM NaCl. Target protein-containing fractions were pooled and concentrated using centrifugal filter units (Amicon). The final protein products and samples for different steps in the purification procedures were evaluated in SDS-Page gels.
SPR measurements were performed on Biacore T200 instrument (GE Healthcare) at 25 °C. Purified P. falciparum Hsp90 and PfGRP94 N-terminal domain, and full-length human Hsp90α were immobilized on a CM5 sensorchip using NHS/EDC coupling following the manufacturer protocol to a level of <10,000 RUs, a reference surfaces without immobilized proteins served as a control for nonspecific binding and refractive index changes. […] The running buffer was 10 mM HEPES, pH 7.4, 150 mM NaCl, 0.005% P20, 1% DMSO and 2 mM MgCl2. Buffer alone injections were used as blanks. The sensor surface was regenerated between injections with a short injection of a buffer 10 mM HEPES, pH 7.4, 150 mM NaCl, 0.005% P20 and 3 mM EDTA. The Biacore responses recorded during the 30 s of the injection were used to estimate the association constant (k on) and the 300 s after the injection were used to estimate the dissociation constant (k off). All kinetic constants were estimated using double subtracted sensorgrams using BiaEvaluation Software (GE Healthcare), the kinetic constants were used to calculate the dissociation constant (K d).

P. falciparum Grp94 = P. falciparum Grp94 (Plasmodium falciparum, UniProt Q8I0V4); test: biochemical; format: binding
P. falciparum Grp94, sequence (Q8I0V4 entry or part of it): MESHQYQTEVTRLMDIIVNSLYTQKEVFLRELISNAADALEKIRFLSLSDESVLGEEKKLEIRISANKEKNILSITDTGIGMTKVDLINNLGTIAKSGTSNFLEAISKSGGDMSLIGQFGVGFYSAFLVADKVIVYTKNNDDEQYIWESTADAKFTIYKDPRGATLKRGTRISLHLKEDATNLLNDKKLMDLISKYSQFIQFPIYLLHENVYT
Description: as §1
(§2) SPR measurements were performed on Biacore T200 instrument (GE Healthcare) at 25 °C. Purified P. falciparum Hsp90 and PfGRP94 N-terminal domain, and full-length human Hsp90α were immobilized on a CM5 sensorchip using NHS/EDC coupling following the manufacturer protocol to a level of <10,000 RUs, a reference surfaces without immobilized proteins served as a control for nonspecific binding and refractive index changes. Seven different concentrations of the ligands between 0.4 nM and 1 mM, were injected in triplicate over the sensor chip at 30 μL/min in random order. The running buffer was 10 mM HEPES, pH 7.4, 150 mM NaCl, 0.005% P20, 1% DMSO and 2 mM MgCl2. Buffer alone injections were used as blanks. The sensor surface was regenerated between injections with a short injection of a buffer 10 mM HEPES, pH 7.4, 150 mM NaCl, 0.005% P20 and 3 mM EDTA. The Biacore responses recorded during the 30 s of the injection were used to estimate the association constant (k on) and the 300 s after the injection were used to estimate the dissociation constant (k off). All kinetic constants were estimated using double subtracted sensorgrams using BiaEvaluation Software (GE Healthcare), the kinetic constants were used to calculate the dissociation constant (K d).

P. falciparum Hsp90 = P. falciparum Hsp90 (Plasmodium falciparum, UniProt Q8IC05); test: biochemical; format: binding
P. falciparum Hsp90, sequence (Q8IC05 entry or part of it): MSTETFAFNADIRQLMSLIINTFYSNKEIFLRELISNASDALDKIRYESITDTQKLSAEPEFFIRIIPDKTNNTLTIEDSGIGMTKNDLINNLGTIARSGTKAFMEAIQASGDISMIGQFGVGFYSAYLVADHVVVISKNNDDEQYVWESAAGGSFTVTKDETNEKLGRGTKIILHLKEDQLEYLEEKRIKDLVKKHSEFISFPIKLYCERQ
Description: as §1, §2

[1] = tested on: P. falciparum chloroquine resistant W2; test: Growth inhibition assay (SYBR Green I), W2; details: Plasmodium falciparum, W2, 72 h
Description: (§3) A 50% suspension of non-infected O positive erythrocytes was added every 2 days to adjust haematocrit to 5%. Parasite cultures were maintained at 37 °C in 5% O2 and 5% CO2 atmosphere with daily changes of culture media.
(§4) A synchronized P. falciparum culture, with over 80% ring forms, was used in the growth inhibition assay. […] A 190 μL aliquot of parasite culture was dispensed per well to microplates that were pre-dispensed with the compounds at various dilutions. […] Dilutions of Hsp90 inhibitors and DHA were prepared in water with a final concentration of DMSO below 0.05% (v/v).
(§5) The microplates were incubated at 37 °C in a controlled atmosphere (5% O2, 5% CO2 Nitrogen balanced) for 72 h. After incubation, the plates were subject to a freeze–thaw cycle (−80 °C) and the parasite growth was quantified by the SYBR Green I method as previously described [33]. Briefly, 100 µL of homogenized parasite culture was transferred into 96-well black plates. […] The plates were incubated at room temperature in darkness for 1 h.
(§6) Growth inhibition experiments were conducted at least three times per compound (biological replicates, n ≥ 3). The IC50 differences for each inhibitor between the two P. falciparum strains were compared with a t test.

[2] = tested on: P. falciparum chloroquine sensitive 3D7; test: Growth inhibition assay (SYBR Green I), 3D7; details: Plasmodium falciparum, 3D7, 72 h
Description: as §3, §4, §5, §6

[3] = SPR, 25 °C, calculated from kinetic constants, read-out: Kd
[4] = Kd, SPR, 25 °C, calculated from kinetic constants

| SMILES | kd (human Hsp90α; SPR, 25 °C) [s⁻¹] | ka (P. falciparum Grp94; SPR, 25 °C) [M⁻¹ s⁻¹] | kd (P. falciparum Grp94; SPR, 25 °C) [s⁻¹] | ka (P. falciparum Hsp90; SPR, 25 °C) | kd (P. falciparum Hsp90; SPR, 25 °C) [s⁻¹] | IC90 [1] [µM] | IC50 ([1]; synchronized ring culture) [µM] | Kd (P. falciparum Grp94) [µM] | IC90 [2] [µM] | IC50 ([2]; synchronized ring culture) [µM] | IC50 [1] [µM] | IC50 [2] [µM] | other results |
| --- | --- | --- | --- | --- | --- | --- | --- | --- | --- | --- | --- | --- | --- |
| Nc1ncnc2c1ncn2[C@@H]1O[C@H](COP(=O)(O)OP(=O)(O)O)[C@@H](O)[C@H]1O [ADP] | 0.006 | 1360 | 0.003 | 107 M⁻¹ s⁻¹ | 0.002 | – | – | – | – | – | – | – | ka (human Hsp90α; SPR, 25 °C): 109 M⁻¹ s⁻¹; Kd (human Hsp90α; SPR, 25 °C, calculated from kinetic constants): 63.8 µM; Kd (P. falciparum Grp94; [3]): 2.21 µM; Kd (P. falciparum Hsp90; [3]): 20.6 µM |
| CC(C)c1cc(C(=O)N2Cc3ccc(CN4CCN(C)CC4)cc3C2)c(O)cc1O [AT13387, (2,4-dihydroxy-5-isopropylphenyl)-[5-(4-methylpiperazin-1-ylmethyl)-1,3-dihydroisoindol-2-yl]methanone] | 0.348 | 216 | 0.643 | 212 M⁻¹ s⁻¹ | 0.009 | 5.37 | 0.531 | 2980 | 4.57 | 0.665 | – | – | kon (human Hsp90α): 570 M⁻¹ s⁻¹; Kd (P. falciparum Hsp90; [4]): 46.5 µM |
| CCN(CC)CCCC(C)Nc1ccnc2cc(Cl)ccc12 (stereo not drawn) [CQ, Chloroquine] | – | – | – | – | – | 0.39 | – | – | 0.0672 | – | 0.129 | 0.0379 | – |
| COC1=C2C[C@@H](C)C[C@H](OC)[C@H](O)[C@@H](C)/C=C(\C)[C@H](OC(N)=O)[C@@H](OC)/C=C\C=C(/C)C(=O)NC(=CC1=O)C2=O [Geldanamycin, geldanamycin] | – | – | – | – | – | 2.63 | – | – | 1.7 | – | 0.2 | 0.215 | – |
| CC(C)NCCCn1c(Sc2cc3c(cc2I)OCO3)nc2c(N)ncnc21 [PUH71] | – | – | – | – | – | > 10 | – | – | – | – | 4.42 | 3.92 | kd (human Hsp90α): 0.007 s⁻¹; ka (P. falciparum Hsp90): 356,000 1/Ms; kd (P. falciparum Hsp90): 0.005 s⁻¹ |
| CC(C)NCCCn1c(Sc2cc(Cl)cc(Cl)c2)nc2c(N)ncnc21 [PUWS13] | 0.022 | 149 | 0.843 | 598,000 1/Ms | 0.041 | 9.06 | 3.88 | 5600 | – | 7 | – | – | kon (human Hsp90α): 811 M⁻¹ s⁻¹; Kd (P. falciparum Hsp90; [4]): 0.069 µM |
| CC1(C)CC(=O)c2c(C(F)(F)F)nn(-c3ccc(C(N)=O)c(N[C@H]4CC[C@H](O)CC4)c3)c2C1 [SNX-2112] | – | 4720 | 0.0006 | 20,300 1/Ms | 0.003 | > 10 | 1.7 | – | – | – | – | – | – |
| CC1(C)CC(=O)c2c(C(F)(F)F)nn(-c3ccc(C(N)=O)c(N[C@H]4CC[C@H](OC(=O)CN)CC4)c3)c2C1 [SNX-5422] | – | – | – | – | – | 6.65 | 2.01 | – | 4.32 | 2.14 | – | – | – |
| CC(C)c1cc(-c2n[nH]c(=O)n2-c2ccc3c(ccn3C)c2)c(O)cc1O [STA-9090] | – | 1.7e+06 | 0.003 | 1.27 M⁻¹ s⁻¹ | 1.5e-07 | > 10 | 1.29 | 0.001 | 4.11 | 1.25 | – | – | Kd (P. falciparum Hsp90; Kd): 0.121 µM |
